# Test results as given in patent US20100040703A1, “USE OF NITRIC OXIDE” (priority 2008, published 2010).
# Test system: Influenza A/Victoria/H3N2
# Test: Plaque assay on MDCK cells after exposure of virions to 160 ppm NO gas
# Format: cell-based
# Conditions: for plaques (infectious virus titre): 160 ppm gNO
substance,measurement,setting,value
Nitric oxide [NO-gas],plaques (infectious virus titre),exposure 0 mins,250 ± 14 pfu/ml
same,plaques (infectious virus titre),exposure 60 mins,50 ± 11 pfu/ml
same,plaques (infectious virus titre),exposure 120 mins,43 ± 10 pfu/ml
same,plaques (infectious virus titre),exposure 180 mins,29 ± 14 pfu/ml
same,less transmissible into host cells than the control group,virions exposed to 160 ppm NO before incubation with host cells,at least 80%
